Biological target: M. tuberculosis GroEL1 (Cpn60.1) (Mycobacterium tuberculosis, UniProt P9WPE9)
Sequence (P9WPE9 2-539 limits assumed): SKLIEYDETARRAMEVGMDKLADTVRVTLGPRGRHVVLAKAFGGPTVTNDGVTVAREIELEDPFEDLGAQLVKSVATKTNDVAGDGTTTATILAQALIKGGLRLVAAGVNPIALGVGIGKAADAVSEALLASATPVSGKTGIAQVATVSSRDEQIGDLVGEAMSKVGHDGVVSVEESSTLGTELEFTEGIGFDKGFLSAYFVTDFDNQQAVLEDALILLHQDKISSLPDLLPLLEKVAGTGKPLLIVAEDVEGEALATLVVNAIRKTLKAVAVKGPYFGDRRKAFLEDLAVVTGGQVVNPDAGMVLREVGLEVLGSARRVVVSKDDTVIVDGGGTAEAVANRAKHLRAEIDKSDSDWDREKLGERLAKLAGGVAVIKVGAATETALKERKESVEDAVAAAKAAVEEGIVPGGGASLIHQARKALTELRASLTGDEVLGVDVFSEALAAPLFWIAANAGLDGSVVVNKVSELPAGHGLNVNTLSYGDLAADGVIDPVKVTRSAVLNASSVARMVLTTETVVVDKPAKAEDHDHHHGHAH

CCC(=O)SCCNC(=O)CCNC(=O)[C@H](O)C(C)(C)COP(=O)(O)OP(=O)(O)OC[C@H]1O[C@@H](n2cnc3c(N)ncnc32)[C@H](O)[C@@H]1OP(=O)(O)O [propionyl-CoA]
auto-propionylation, anti-propionyllysine enrichment and MS/MS: Using propionyl-CoA as a substrate

Reference: article doi:10.1101/2025.07.07.663466v1 (biorxiv, 2025)
